Assay results taken from patent publication US20200385777A1, “METHOD FOR DETERMINING DYSBIOSIS IN THE INTESTINAL MICROBIOME” (EVOLVE BIOSYSTEMS, INC., priority 2018, published 2020).

Key:
isolate 7174-4 = assay: MIC microdilution, fecal isolate 7174-4; format: cell-based
Procedure: (§1) Whole genome sequencing and assembly of bacterial isolates. […] Selected isolates were grown in 20 ml LB broth overnight at 37° C. Cultures were aliquoted into 1 ml aliquots, centrifuged at 10,000×g for 5 min and the supernatant was removed. Cell pellets were resuspended in DNA/RNA Shield solution provided in DNA/RNA Shield Microbe Lysis tubes (Zymo Research, Irvine Calif.) and transferred into lysis tubes. High-molecular weight genomic DNA was extracted using the Quick-DNA Fecal/Soil
(§2) Minimal inhibitory concentrations. […] Carbenicillin was added to growth media for transformed strains at a concentration of 100 μg/ml. The microtiter plates were incubated for 24 h at 37° C. The optical density (OD) of each well was measured at 600 nm using an automated microtiter plate reader (BIO-TEK, Synergy HT). The MIC corresponded to the lowest antibiotic concentration at which no growth was detected. All tests were performed in triplicate

isolate 7084-5 = assay: MIC microdilution, fecal isolate 7084-5; format: cell-based
Procedure: as §1, §2

isolate 7005-11 = assay: MIC microdilution, fecal isolate 7005-11; format: cell-based
Procedure: as §1, §2

isolate 7084-4 = assay: MIC microdilution, fecal isolate 7084-4; format: cell-based
Procedure: as §1, §2

isolate 7122-2 = assay: MIC microdilution, fecal isolate 7122-2; format: cell-based
Procedure: as §1, §2

isolate 7174-2 = assay: MIC microdilution, fecal isolate 7174-2; format: cell-based
Procedure: as §1, §2

isolate 7122-9 = assay: MIC microdilution, fecal isolate 7122-9; format: cell-based
Procedure: as §1, §2

DH5α = assay: MIC microdilution, DH5α; format: cell-based
Procedure: as §2

isolate 7084-1 = assay: MIC microdilution, fecal isolate 7084-1; format: cell-based
Procedure: as §1, §2

isolate 7005-5 = assay: MIC microdilution, fecal isolate 7005-5; format: cell-based
Procedure: as §1, §2

isolate 7005-13 = assay: MIC microdilution, fecal isolate 7005-13; format: cell-based
Procedure: as §1, §2

isolate 7005-9 = assay: MIC microdilution, fecal isolate 7005-9; format: cell-based
Procedure: as §1, §2

isolate 7122-1 = assay: MIC microdilution, fecal isolate 7122-1; format: cell-based
Procedure: as §1, §2

[1] = test system: bacteria isolated from EMB agar from fecal samples of control infants; assay: MIC, fecal isolates of control infants taken together; format: cell-based, Escherichia coli; Raoultella planticola; details: all fecal isolates
Procedure: To confirm the presence of full length, functional ARGs and the relationship of these ARGs to individual resistance phenotypes at the strain level, bacteria isolated from EMB agar were obtained from the fecal samples of four representative control infants. Whole-genome sequencing of twelve isolates was performed on a MinION sequencer and assembly led to an average coverage of 18× (min 5.4; max 40). Taxonomic identification was confirmed via BLASTN against the NCBI nucleotide database (https://www.ncbl.nlrn.nih.gov/nucleotide) showing three isolates classified as Raoultella planticola and the remaining nine as Escherichia coli. The CARD protein sequences collection was used as query against the twelve assembled isolates via TBLASTN. […] The latter genes are likely absent on the E. coli and R. planticola genomes and present on different species.
Whole genome sequencing and assembly of bacterial isolates. […]
Minimal inhibitory concentrations. Minimal inhibitory concentrations (MICs) were determined according to Clinical and Laboratory Standards Institute guidelines for microdilution susceptibility testing {Wikler, 2006}. […] The optical density (OD) of each well was measured at 600 nm using an automated microtiter plate reader (BIO-TEK, Synergy HT). The MIC corresponded to the lowest antibiotic concentration at which no growth was detected. […]

isolate 7174-5 = assay: MIC microdilution, fecal isolate 7174-5; format: cell-based
Procedure: as §1, §2

Clostridium difficile = assay: Equine trial: Clostridium difficile diarrhea outcome in foals; format: in vivo, horse; details: all foals dosed at birth with 6.6 mg/kg
Procedure: Seventeen foals were born during the initiation of the outbreak, of which fifteen animals became ill and required intervention, applying the standard of care (i.e., antibiotic treatment) and two died. […] All treated animals were given doses immediately at birth and twice per day thereafter for 4 days. […] Two foals, who were dosed starting at 12 hours of life rather than immediately at birth, developed a mild infection by Clostridium difficile but recovered within 8 hr compared to the standard recovery time of >24 hr for sick animals given the standard of care. […] A Fisher's exact test of the two populations (Standard of Care and Probiotic treated) yields a significant difference in incidences of C. difficile infection (p=0.0036) (Table 10).

[2] = read-out: Minimum inhibitory concentration (MIC)

Row | Compound | Resistant/Susceptible according to breakpoints for clinical resistance (isolate 7174-4; isolate 7174-4) | Resistant/Susceptible according to breakpoints for clinical resistance (isolate 7084-5; isolate 7084-5) | Resistant/Susceptible according to breakpoints for clinical resistance (isolate 7005-11; isolate 7005-11) | Resistant/Susceptible according to breakpoints for clinical resistance (isolate 7084-4; isolate 7084-4) | Resistant/Susceptible according to breakpoints for clinical resistance (isolate 7122-2; isolate 7122-2) | Resistant/Susceptible according to breakpoints for clinical resistance (isolate 7174-2; isolate 7174-2) | Resistant/Susceptible according to breakpoints for clinical resistance (isolate 7122-9; isolate 7122-9) | Resistant/Susceptible according to breakpoints for clinical resistance (DH5α) | Resistant/Susceptible according to breakpoints for clinical resistance (isolate 7084-1; isolate 7084-1) | Resistant/Susceptible according to breakpoints for clinical resistance (isolate 7005-5; isolate 7005-5) | Resistant/Susceptible according to breakpoints for clinical resistance (isolate 7005-13; isolate 7005-13) | Resistant/Susceptible according to breakpoints for clinical resistance (isolate 7005-9; isolate 7005-9) | Resistant/Susceptible according to breakpoints for clinical resistance (isolate 7122-1; isolate 7122-1) | Resistance among the isolates [1] | Resistant/Susceptible according to breakpoints for clinical resistance (isolate 7174-5; isolate 7174-5) | also measured
1 | CC1(C)S[C@@H]2[C@H](NC(=O)[C@H](N)c3ccccc3)C(=O)N2[C@H]1C(=O)O [Ampicillin] | (R) | (R) | (R) | (R) | (S) | (R) | (S) | (S) | (R) | (R) | (R) | (R) | (S) | With the exception of three isolates obtained from the same infant (7174), all of the isolates displayed resistance | (R) | MIC (isolate 7174-4; [2]): 512 µg/mL; MIC (isolate 7084-5; [2]): 512 µg/mL; MIC (isolate 7005-11; [2]): 64 µg/mL; MIC (isolate 7084-4; [2]): 512 µg/mL; MIC (isolate 7122-2; [2]): 16 µg/mL; MIC (isolate 7174-2; [2]): 512 µg/mL; MIC (isolate 7122-9; [2]): 16 µg/mL; MIC (DH5α; [2]): 4 µg/mL; MIC (isolate 7084-1; [2]): 512 µg/mL; MIC (isolate 7005-5; [2]): 128 µg/mL; MIC (isolate 7005-13; [2]): 64 µg/mL; MIC (isolate 7005-9; [2]): 128 µg/mL; MIC (isolate 7122-1; [2]): 16 µg/mL; MIC (isolate 7174-5; [2]): 512 µg/mL
2 | Gentamicin | (S) | (S) | (S) | (S) | (S) | (S) | (S) | (S) | (S) | (S) | (S) | (S) | (S) | No resistance | (S) | Minimum inhibitory concentration (MIC) (isolate 7174-4; isolate 7174-4): <4 µg/mL; Minimum inhibitory concentration (MIC) (isolate 7084-5; isolate 7084-5): <4 µg/mL; Minimum inhibitory concentration (MIC) (isolate 7005-11; isolate 7005-11): <4 µg/mL; Minimum inhibitory concentration (MIC) (isolate 7084-4; isolate 7084-4): <4 µg/mL; Minimum inhibitory concentration (MIC) (isolate 7122-2; isolate 7122-2): <4 µg/mL; Minimum inhibitory concentration (MIC) (isolate 7174-2; isolate 7174-2): <4 µg/mL; Minimum inhibitory concentration (MIC) (isolate 7122-9; isolate 7122-9): <4 µg/mL; Minimum inhibitory concentration (MIC) (DH5α): <4 µg/mL; Minimum inhibitory concentration (MIC) (isolate 7084-1; isolate 7084-1): <4 µg/mL; Minimum inhibitory concentration (MIC) (isolate 7005-5; isolate 7005-5): <4 µg/mL; Minimum inhibitory concentration (MIC) (isolate 7005-13; isolate 7005-13): <4 µg/mL; Minimum inhibitory concentration (MIC) (isolate 7005-9; isolate 7005-9): <4 µg/mL; Minimum inhibitory concentration (MIC) (isolate 7122-1; isolate 7122-1): <4 µg/mL; Minimum inhibitory concentration (MIC) (isolate 7174-5; isolate 7174-5): <4 µg/mL
3 | CO/N=C(\C(=O)N[C@@H]1C(=O)N2C(C(=O)O)=C(CSC(=O)c3ccco3)CS[C@H]12)c1csc(N)n1 [ceftiofur] |  |  |  |  |  |  |  |  |  |  |  |  |  |  |  | Effect on health outcome related to diarrhea (Clostridium difficile): did not affect health outcome
